# How the values were obtained:
# Type in all cases: functional
# [1] = tested on: ACHN; experiment: Cytotoxicity against human ACHN cells after 48 hrs by SRB assay
# [2] = tested on: NCI/ADR-RES; experiment: Growth inhibition of human NCI/ADR-RES cells assessed as cell growth at 10^-7 M incubated for 48 hrs by sulforhodamine B assay relative to control; conditions: read-out: Activity
# [3] = tested on: BT-549; experiment: Cytotoxicity against human BT549 cells after 48 hrs by SRB assay; conditions: BT-549, 48 h; for CC50: read-out: pLC50 (the source's name) (converted)
# [4] = tested on: HOP-92; experiment: Cytotoxicity against human HOP92 cells after 48 hrs by SRB assay; conditions: HOP-92, 48 h
# [5] = tested on: SK-MEL-2; experiment: Growth inhibition of human SK-MEL-2 cells assessed as cell growth at 10^-7 M incubated for 48 hrs by sulforhodamine B assay relative to control; conditions: SK-MEL-2, 48 h, read-out: Activity
# [6] = tested on: OVCAR-4; experiment: Growth inhibition of human OVCAR4 cells assessed as cell growth at 10^-5 M incubated for 48 hrs by sulforhodamine B assay relative to control; conditions: OVCAR-4, 48 h, read-out: Activity
# [7] = tested on: SW-620; experiment: Growth inhibition of human SW620 cells assessed as cell growth at 10^-5 M incubated for 48 hrs by sulforhodamine B assay relative to control; conditions: SW-620, 48 h, read-out: Activity
# [8] = tested on: UACC-62; experiment: Growth inhibition of human UACC62 cells assessed as cell growth at 10^-5 M incubated for 48 hrs by sulforhodamine B assay relative to control; conditions: UACC-62, 48 h, read-out: Activity
# [9] = tested on: M14; experiment: Growth inhibition of human M14 cells assessed as cell growth at 10^-8 M incubated for 48 hrs by sulforhodamine B assay relative to control; conditions: M14, 48 h, read-out: Activity
# [10] = tested on: 786-0; experiment: Growth inhibition of human 786-0 cells assessed as cell growth at 10^-7 M incubated for 48 hrs by sulforhodamine B assay relative to control; conditions: 786-0, 48 h, read-out: Activity
# [11] = tested on: HCC 2998; experiment: Growth inhibition of human HCC2998 cells assessed as cell growth at 10^-7 M incubated for 48 hrs by sulforhodamine B assay relative to control; conditions: HCC 2998, 48 h, read-out: Activity
# [12] = tested on: Malme-3M; experiment: Growth inhibition of human MALME-3M cells assessed as cell growth at 10^-8 M incubated for 48 hrs by sulforhodamine B assay relative to control; conditions: read-out: Activity
# [13] = tested on: KM12; experiment: Cytotoxicity against human KM12 cells after 48 hrs by SRB assay; conditions: KM12, 48 h
# [14] = tested on: EKVX; experiment: Growth inhibition of human EKVX cells assessed as cell growth at 10^-6 M incubated for 48 hrs by sulforhodamine B assay relative to control; conditions: read-out: Activity
# [15] = tested on: HT-29; experiment: Growth inhibition of human HT-29 cells assessed as cell growth at 10^-8 M incubated for 48 hrs by sulforhodamine B assay relative to control; conditions: HT-29, 48 h, read-out: Activity
# [16] = tested on: SK-MEL-5; experiment: Growth inhibition of human SK-MEL-5 cells assessed as cell growth at 10^-8 M incubated for 48 hrs by sulforhodamine B assay relative to control; conditions: SK-MEL-5, 48 h, read-out: Activity
# [17] = tested on: OVCAR-4; experiment: Growth inhibition of human OVCAR4 cells assessed as cell growth at 10^-4 M incubated for 48 hrs by sulforhodamine B assay relative to control; conditions: OVCAR-4, 48 h, read-out: Activity
# [18] = tested on: OVCAR-5; experiment: Growth inhibition of human OVCAR5 cells assessed as cell growth at 10^-8 M incubated for 48 hrs by sulforhodamine B assay relative to control; conditions: OVCAR-5, 48 h, read-out: Activity
# [19] = tested on: TK-10; experiment: Growth inhibition of human TK10 cells assessed as cell growth at 10^-6 M incubated for 48 hrs by sulforhodamine B assay relative to control; conditions: TK-10, 48 h, read-out: Activity
# [20] = tested on: UACC-62; experiment: Growth inhibition of human UACC62 cells assessed as cell growth at 10^-8 M incubated for 48 hrs by sulforhodamine B assay relative to control; conditions: UACC-62, 48 h, read-out: Activity
# [21] = tested on: SW-620; experiment: Growth inhibition of human SW620 cells assessed as cell growth at 10^-4 M incubated for 48 hrs by sulforhodamine B assay relative to control; conditions: SW-620, 48 h, read-out: Activity
# [22] = tested on: Malme-3M; experiment: Growth inhibition of human MALME-3M cells assessed as cell growth at 10^-7 M incubated for 48 hrs by sulforhodamine B assay relative to control; conditions: read-out: Activity
# [23] = tested on: NCI-H322M; experiment: Growth inhibition of human NCI-H322M cells assessed as cell growth at 10^-5 M incubated for 48 hrs by sulforhodamine B assay relative to control; conditions: read-out: Activity
# [24] = tested on: K562; experiment: Growth inhibition of human K562 cells assessed as cell growth at 10^-8 M incubated for 48 hrs by sulforhodamine B assay relative to control; conditions: K562, 48 h, read-out: Activity
# [25] = tested on: OVCAR-3; experiment: Cytotoxicity against human OVCAR3 cells after 48 hrs by SRB assay; conditions: OVCAR-3, 48 h
# [26] = tested on: UO-31; experiment: Growth inhibition of human UO31 cells assessed as cell growth at 10^-7 M incubated for 48 hrs by sulforhodamine B assay relative to control; conditions: UO-31, 48 h, read-out: Activity
# [27] = tested on: HCC 2998; experiment: Growth inhibition of human HCC2998 cells assessed as cell growth at 10^-8 M incubated for 48 hrs by sulforhodamine B assay relative to control; conditions: HCC 2998, 48 h, read-out: Activity
# [28] = tested on: SK-OV-3; experiment: Cytotoxicity against human SKOV3 cells after 48 hrs by SRB assay; conditions: SK-OV-3, 48 h
# [29] = tested on: SNB-75; experiment: Cytotoxicity against human SNB75 cells after 48 hrs by SRB assay; conditions: SNB-75, 48 h
# [30] = tested on: TK-10; experiment: Growth inhibition of human TK10 cells assessed as cell growth at 10^-4 M incubated for 48 hrs by sulforhodamine B assay relative to control; conditions: TK-10, 48 h, read-out: Activity
# [31] = tested on: MDA-MB-435; experiment: Growth inhibition of human MDA-MB-435 cells assessed as cell growth at 10^-5 M incubated for 48 hrs by sulforhodamine B assay relative to control; conditions: MDA-MB-435, 48 h, read-out: Activity
# [32] = tested on: MDA-MB-231; experiment: Growth inhibition of human MDA-MB-231 cells assessed as cell growth at 10^-6 M incubated for 48 hrs by sulforhodamine B assay relative to control; conditions: MDA-MB-231, 48 h, read-out: Activity
# [33] = tested on: RPMI-8226; experiment: Growth inhibition of human RPMI8226 cells assessed as cell growth at 10^-6 M incubated for 48 hrs by sulforhodamine B assay relative to control; conditions: RPMI-8226, 48 h, read-out: Activity
# [34] = read-out: LC50 (the source's name)
# [35] = read-out: pLC50 (the source's name) (converted)
smiles,measurement,setting,value
C#C[C@@]1(O)[C@@H](CO)O[C@@H](n2ccc3c(N)ncnc32)[C@@H]1O,GI50,[1],0.562 µM
same,CC50,[1]; [34],> 100 µM
same,TGI,[1]; read-out: TGI,4.48 µM
same,TGI,[1]; read-out: pTGI (converted),4.47 µM
same,growth at 0.1 µM,[2],92%
same,TGI,[3]; read-out: TGI,3.64 µM
same,GI50,[3]; read-out: pGI50 (converted),1.62 µM
same,CC50,[3],8.13 µM
same,TGI,[3]; read-out: pTGI (converted),3.63 µM
same,TGI,[4]; read-out: TGI,5.56 µM
same,GI50,[4]; read-out: pGI50 (converted),2.04 µM
same,CC50,[4]; [35],22.9 µM
same,TGI,[4]; read-out: pTGI (converted),5.62 µM
same,growth at 0.1 µM,[5],90%
same,growth at 10 µM,[6],-9%
same,growth at 10 µM,[7],5%
same,growth at 10 µM,[8],-44%
same,growth at 0.01 µM,[9],93%
same,growth at 0.1 µM,[10],92%
same,growth at 0.1 µM,[11],93%
same,growth at 0.01 µM,[12],86%
same,TGI,[13]; read-out: TGI,10.9 µM
same,CC50,[13]; [35],91.2 µM
same,TGI,[13]; read-out: pTGI (converted),11 µM
same,growth at 1 µM,[14],67%
same,growth at 0.01 µM,[15],99%
same,growth at 0.01 µM,[16],102%
same,growth at 100 µM,[17],-100%
same,growth at 0.01 µM,[18],87%
same,growth at 1 µM,[19],88%
same,growth at 0.01 µM,[20],97%
same,growth at 100 µM,[21],-45%
same,growth at 0.1 µM,[22],97%
same,growth at 10 µM,[23],-16%
same,growth at 0.01 µM,[24],103%
same,TGI,[25]; read-out: TGI,12 µM
same,GI50,[25]; read-out: pGI50 (converted),2.95 µM
same,CC50,[25]; [35],> 100 µM
same,TGI,[25]; read-out: pTGI (converted),12 µM
same,growth at 0.1 µM,[26],105%
same,growth at 0.01 µM,[27],99%
same,TGI,[28]; read-out: TGI,5.24 µM
same,GI50,[28]; read-out: pGI50 (converted),1.07 µM
same,CC50,[28]; [35],> 100 µM
same,TGI,[28]; read-out: pTGI (converted),5.25 µM
same,TGI,[29]; read-out: TGI,3.84 µM
same,GI50,[29]; read-out: pGI50 (converted),1.82 µM
same,TGI,[29]; read-out: pTGI (converted),3.8 µM
same,growth at 100 µM,[30],-5%
same,growth at 10 µM,[31],-62%
same,growth at 1 µM,[32],66%
same,growth at 1 µM,[33],44%
C#C[C@@]1(O)[C@@H](CO)O[C@@H](n2cc(I)c3c(N)ncnc32)[C@@H]1O,GI50,[1],0.316 µM
same,TGI,[1]; read-out: TGI,> 100 µM
same,CC50,[1]; [35],> 100 µM
same,TGI,[1]; read-out: pTGI (converted),> 100 µM
same,growth at 0.1 µM,[2],41 to 47%
same,GI50,[3]; read-out: GI50,0.175 to 0.384 µM
same,TGI,[3]; read-out: TGI,3.26 to 4.94 µM
same,CC50,[3],> 100 µM
same,GI50,[4]; read-out: GI50,0.025 to 0.217 µM
same,CC50,[4]; [34],> 100 µM
same,TGI,[4]; read-out: TGI,0.991 to 4.98 µM
same,growth at 0.1 µM,[5],63 to 77%
same,growth at 10 µM,[6],9 to 13%
same,growth at 10 µM,[7],4%
same,growth at 0.01 µM,[9],85 to 94%
same,growth at 0.1 µM,[10],72 to 79%
same,growth at 0.1 µM,[11],70 to 75%
same,growth at 0.01 µM,[12],85 to 98%
same,GI50,[13]; read-out: GI50,0.0928 to 0.0998 µM
same,CC50,[13]; [34],> 100 µM
same,TGI,[13]; read-out: TGI,> 100 µM
same,TGI,[13]; read-out: pTGI (converted),> 100 µM
same,growth at 1 µM,[14],33 to 38%
same,growth at 0.01 µM,[15],56 to 73%
same,growth at 0.01 µM,[16],87 to 94%
same,growth at 100 µM,[17],9 to 14%
same,growth at 0.01 µM,[18],79 to 80%
same,growth at 1 µM,[19],34 to 39%
same,growth at 0.01 µM,[20],95%
same,growth at 100 µM,[21],3%
same,growth at 0.1 µM,[22],78 to 99%
same,growth at 0.01 µM,[24],95 to 102%
same,GI50,[25]; read-out: GI50,0.321 to 0.427 µM
same,CC50,[25]; [34],> 100 µM
same,growth at 0.1 µM,[26],46 to 50%
same,growth at 0.01 µM,[27],87 to 90%
same,GI50,[28]; read-out: GI50,0.0194 to 0.0604 µM
same,CC50,[28]; [34],> 100 µM
same,TGI,[28]; read-out: TGI,0.469 to 1.13 µM
same,GI50,[29]; read-out: GI50,0.373 to 0.559 µM
same,CC50,[29]; [34],5.53 to 5.92 µM
same,TGI,[29]; read-out: TGI,1.81 to 2.18 µM
same,growth at 10 µM,[31],3 to 4%
same,growth at 1 µM,[32],17 to 27%
same,growth at 1 µM,[33],23 to 27%

# — ChEMBL document CHEMBL4270599, “Synthesis of a 3'-C-ethynyl-β-d-ribofuranose purine nucleoside library: Discovery of C7-deazapurine analogs as potent antiproliferative nucleosides” (Eur J Med Chem, 2018)
